These results are taken from patent US20230382920A1, “SHMT Inhibitors” (The Trustees of Princeton University, priority 2020, published 2023).

A value given as a limit tells only on which side of the number the result lay.

Data set [1] relates to HCT116. Nature of the data set: HCT116 growth inhibition assay. Particulars: without formate. The data set is classed as cell-based. Here is the method:
(§1) Example 5. HCT116 Growth Inhibition and Formate Rescue Assays
(§2) 3,000 Cells were plated in each well of a 96-well plate with 80 μL of DMEM media supplemented with 10% dFBS, and incubated for 24 hours. Drugs with or without sodium formate (1 mM) were then added to each well to a final volume of 100 μL. Cell growth was measured as fluorescence intensity by resazurin after four days. In short, resazurin was added to each well to a final concentration of 10 μg·mL^−1. After incubation for one hour, fluorescence was measured by a Synergy HT plate reader (BioTek Instruments).

Data set [2] deals with HCT116. In words: HCT116 formate rescue assay (with sodium formate 1 mM). The data set is classed as cell-based. Particulars: HCT116 growth. As to the method:
as §1, §2

Data set [3] in a line: Mouse liver microsome assay (metabolic stability). It is filed as in vitro ADME. The following applies: mouse liver microsomes; for half-life at 2 µM: in vitro half-life; for microsomal CLint at 2 µM: in vitro intrinsic clearance, read-out: Relative Clint. Here is the method:
Example 6. Mouse Liver Microsome Assay
Metabolic stability of several compounds in mouse liver microsomes was tested. Briefly, a master solution was prepared according to Table 31.
Two separate experiments were performed: an experiment with cofactors and an experiment without cofactors. In the experiment with cofactors 40 μL of 10 mM NADPH and 40 μL of 20 mM UDPGA were added to the incubations. The final concentrations of microsomes, NADPH and UDPGA were 0.5 mg/mL, 1 mM and 2 mM, respectively. In the experiment without cofactors 10 μL of 20 mg/mL liver microsomes and 80 μL of ultra-pure H2O were added to the incubations. The final concentration of microsomes was 0.5 mg/mL. The mixture was pre-warmed at 37° C. for 5 minutes.
The reaction was started with the addition of 4 μL of 200 μM control compound or test compound solutions. Verapamil was used as positive control in this study. The final concentration of test compound was 2 μM and the final concentration of control compound was 1 μM. The incubation solution was incubated in water bath at 37° C.
Aliquots of 50 μL were taken from the reaction solution at 0.5, 5, 15, 30, 45 and 60 minutes. The reaction was stopped by the addition of five volumes of cold acetonitrile with IS (100 nM alprazolam, 200 nM caffeine and 100 nM tolbutamide). Samples were centrifuged at 3,220 g for 40 minutes. Aliquot of 100 μL of the supernatant was mixed with 100 μL of ultra-pure H2O and then subject to LC-MS/MS analysis.
All calculations were carried out using Microsoft Excel. Peak areas were determined from extracted ion chromatograms. The slope value, k, was determined by linear regression of the natural logarithm of the remaining percentage of the parent drug versus incubation time curve. The in vitro half-life (in vitro t½) was determined from the slope value:
Conversion of the in vitro t1/2(min) into the in vitro intrinsic clearance (in vitro CLint, in μL/min/mg protein) was done using the following equation (mean of duplicate determinations): […]

Broadly, the IC50 is the midpoint of a concentration-inhibition curve. Usually half-life stands for the time needed for the level to fall by half in the phase considered. Higher therefore signals slow decline. Take `Cc1n[nH]c2c1C(c1cc(C#C[C@@H]3C[C@H]3CO)cc(CO)c1)(C(C)C)C(C#N)=C(N)O2` (some centres unmarked) [KDG-0136]: in the data set on HCT116 [1], the IC50 entry is given as “C″”. Moreover, in the data set on HCT116 [2] (Homo sapiens, HCT-116, 96 h), the IC50 was more than 5 µM. For the same compound, in data set [3], the half-life at 2 µM was 10 to 20 min and the microsomal CLint at 2 µM was not above 70 µL/min/mg.
As for `Cc1n[nH]c2c1C(c1cc(C#C[C@H]3C[C@H](C(C)(C)O)C3)cc(CO)c1)(C(C)C)C(C#N)=C(N)O2` (some centres unmarked) [KDG-0258], the 50% inhibitory concentration (IC50) result with HCT116 [1] is given as “A″”. In data set [3], the half-life at 2 µM is less than 5 min and the microsomal CLint at 2 µM is more than 250 µL/min/mg.
As to `Cc1n[nH]c2c1C(c1cc(C#C[C@H]3C[C@@H](C(C)(C)O)C3)cc(C(C)(C)O)c1)(C(C)C)C(C#N)=C(N)O2` (some centres unmarked) [KDG-0261-100], the IC50 result was “C″” in the data set on HCT116 [1] and more than 5 µM in the data set on HCT116 [2] (Homo sapiens, HCT-116, 96 h). Moreover, the half-life at 2 µM in data set [3] is less than 5 min. In addition, in data set [3], the microsomal CLint at 2 µM is more than 250 µL/min/mg.
Consider `Cc1n[nH]c2c1C(c1cc(C#C[C@H]3C[C@H](COC(N)=O)C3)cc(C(C)(C)O)c1)(C(C)C)C(C#N)=C(N)O2` (some centres unmarked) [KDG-0262], for which the IC50 result in the data set with HCT116 [1] is reported as “C″”. Also, the half-life at 2 µM in data set [3] was less than 5 min.
`Cc1n[nH]c2c1C(c1cc(C#C[C@H]3C[C@H](C(=O)N(C)C)C3)cc(CO)c1)(C(C)C)C(C#N)=C(N)O2` (some centres unmarked) [KDG-0265]: the IC50 entry in the data set with HCT116 [1] is “C″”. Further, the half-life at 2 µM in data set [3] lay in the range of 5 to 10 min.
In the case of `Cc1n[nH]c2c1C(c1cc(C#C[C@H]3CC[C@@](C)(O)CC3)cc(CO)c1)(C(C)C)C(C#N)=C(N)O2` (some centres unmarked) [KDG-0270], in the data set on HCT116 [1], the IC50 entry was “B″”. In addition, in data set [3], the half-life at 2 µM is less than 5 min.
For `Cc1n[nH]c2c1C(c1cc(C#CC3CCOCC3)cc(CO)c1)(C(C)C)C(C#N)=C(N)O2` (centres unmarked) [KDG-0273], the IC50 result in the data set on HCT116 [1] is “B″”. Also, in data set [3], the half-life at 2 µM was less than 5 min.
In the case of `Cc1n[nH]c2c1C(c1cc(C#CC3CCCN3C(=O)OC(C)(C)C)cc(CO)c1)(C(C)C)C(C#N)=C(N)O2` (centres unmarked) [KDG-0280], the IC50 result in the data set with HCT116 [1] is recorded as “B″”. The half-maximal inhibitory concentration (IC50) in the data set with HCT116 [2] (Homo sapiens, HCT-116, 96 h) was more than 5 µM. Also, in data set [3], the half-life at 2 µM is less than 5 min and the microsomal CLint at 2 µM was more than 250 µL/min/mg.
For the compound `Cc1n[nH]c2c1C(c1cc(C#CC3CCN(C(=O)OC(C)(C)C)CC3)cc(CO)c1)(C(C)C)C(C#N)=C(N)O2` (centres unmarked) [KDG-0289], the IC50 result in the data set with HCT116 [1] was “A″”. Also, the 50% inhibitory concentration (IC50) in the data set with HCT116 [2] (Homo sapiens, HCT-116, 96 h) was less than 0.1 µM. For the same compound, in data set [3], the half-life at 2 µM is 5 to 10 min and the microsomal CLint at 2 µM fell in the range of 100 to 250 µL/min/mg.
The matching figures for `Cc1n[nH]c2c1C(c1cc(C#CC3(C)CCN(C(=O)OC(C)(C)C)CC3)cc(CO)c1)(C(C)C)C(C#N)=C(N)O2` (centres unmarked) [KDG-0296]: “C″”, less than 0.1 µM, 5 to 10 min and 100 to 250 µL/min/mg.
`Cc1n[nH]c2c1C(c1cc(C#CC3(F)CCN(C(=O)OC(C)(C)C)CC3)cc(CO)c1)(C(C)C)C(C#N)=C(N)O2` (centres unmarked) [KDG-0297]: the concentration for half-maximal inhibition (IC50) result with HCT116 [1] is “B″”. In addition, in the data set on HCT116 [2] (Homo sapiens, HCT-116, 96 h), the IC50 is more than 5 µM. Further, in data set [3], the half-life at 2 µM fell in the range of 5 to 10 min and the microsomal CLint at 2 µM was in the range of 100 to 250 µL/min/mg.
For `Cc1n[nH]c2c1C(c1cc(C#CC3(C)CN(C(=O)OC(C)(C)C)C3)cc(CO)c1)(C(C)C)C(C#N)=C(N)O2` (centres unmarked) [KDG-0300], in data set [3], the half-life at 2 µM lay in the range of 5 to 10 min and the microsomal CLint at 2 µM was more than 250 µL/min/mg.
`Cc1n[nH]c2c1[C@](c1cc(C#CC3(C(F)(F)F)CN(C(=O)OC(C)(C)C)C3)cc(CO)c1)(C(C)C)C(C#N)=C(N)O2` [KDG-0301]: in the data set with HCT116 [1], the IC50 entry is reported as “A″”. The IC50 with HCT116 [2] (Homo sapiens, HCT-116, 96 h) was more than 5 µM. In addition, in data set [3], the half-life at 2 µM is not below 20 min and the microsomal CLint at 2 µM is not above 70 µL/min/mg.
On to `COC(=O)N1CC(F)(C#Cc2cc(CO)cc([C@@]3(C(C)C)C(C#N)=C(N)Oc4[nH]nc(C)c43)c2)C1` [KDG-0313], for which the half-maximal inhibitory concentration (IC50) result with HCT116 [1] is “B″”; in the data set on HCT116 [2] (Homo sapiens, HCT-116, 96 h) it was more than 5 µM. The half-life at 2 µM in data set [3] was not below 20 min. Further, the microsomal CLint at 2 µM in data set [3] is not above 70 µL/min/mg.
The matching figures for `Cc1n[nH]c2c1C(c1cc(C#C[C@H]3CC[C@@H](NC(=O)OC(C)(C)C)CC3)cc(CO)c1)(C(C)C)C(C#N)=C(N)O2` (some centres unmarked) [KDG-0321]: “A″”, less than 0.1 µM, less than 5 min and more than 250 µL/min/mg.
Regarding `Cc1n[nH]c2c1C(c1cc(C#CC3CN(C(=O)OC(C)(C)C)C3)cc(CF)c1)(C(C)C)C(C#N)=C(N)O2` (centres unmarked) [KDG-0345], the IC50 entry with HCT116 [1] is “A″”. In data set [3], the half-life at 2 µM is 5 to 10 min and the microsomal CLint at 2 µM was 100 to 250 µL/min/mg.
For the compound `Cc1n[nH]c2c1C(c1cc(C#C[C@H]3C[C@@H](NC(=O)OC(C)(C)C)C3)cc(CO)c1)(C(C)C)C(C#N)=C(N)O2` (stereo partly drawn) [KDG-0388-0pk2, tert-butyl N-[(1s,3s)-3-(2-[3-[(4R)-6-amino-5-cyano-4-isopropyl-3-methyl-1H-pyrano[2,3-c]pyrazol-4-yl]-5-(hydroxymethyl)phenyl]ethynyl)cyclobutyl]carbamate], the 50% inhibitory concentration (IC50) result in the data set on HCT116 [1] is “A″”; in the data set with HCT116 [2] it was more than 5 µM.
As to `Cc1n[nH]c2c1[C@](c1cc(C#C[C@H]3C[C@@H](NC(=O)OC(C)(C)C)C3)cc(CO)c1)(C(C)C)C(C#N)=C(N)O2` [KDG-0388-Opk1, tert-butyl N-[(1s,3s)-3-(2-[3-[(4S)-6-amino-5-cyano-4-isopropyl-3-methyl-1H-pyrano[2,3-c]pyrazol-4-yl]-5-(hydroxymethyl)phenyl]ethynyl)cyclobutyl]carbamate], the 50% inhibitory concentration (IC50) result in the data set with HCT116 [1] was “D″”; with HCT116 [2] (Homo sapiens, HCT-116, 96 h) it was less than 0.1 µM.
In turn, `Cc1n[nH]c2c1C(c1cc(C#C[C@H]3C[C@H](C(=O)OC(C)(C)C)C3)cc(CO)c1)(C(C)C)C(C#N)=C(N)O2` (some centres unmarked) [KDG-0393] came in with a half-life at 2 µM in data set [3] of less than 5 min.
Regarding `Cc1n[nH]c2c1C(c1cc(C#CC3CN(C(=O)NC(C)(C)C)C3)cc(CO)c1)(C(C)C)C(C#N)=C(N)O2` (centres unmarked) [KDG-0412], the half-maximal inhibitory concentration (IC50) result in the data set with HCT116 [1] was “D″”. In addition, in the data set on HCT116 [2] (Homo sapiens, HCT-116, 96 h), the 50% inhibitory concentration (IC50) was more than 5 µM. Besides, in data set [3], the half-life at 2 µM was 10 to 20 min and the microsomal CLint at 2 µM fell in the range of 70 to 100 µL/min/mg.
The matching figures for `[2H]C([2H])(O)c1cc(C#CC2CN(C(=O)OC(C)(C)C)C2)cc(C2(C(C)C)C(C#N)=C(N)Oc3[nH]nc(C)c32)c1` (centres unmarked) [KDG-0413]: “B″”, less than 0.1 µM, 10 to 20 min and 70 to 100 µL/min/mg.
As for `Cc1c[nH]c2c1C(c1cc(CO)cc(-c3ccc(C4CN(C(=O)OC(C)(C)C)C4)cc3)c1)(C(C)C)C(C#N)=C(N)O2` (centres unmarked) [KDG-0453], in the data set on HCT116 [1], the IC50 result is “A″”. Further, in the data set on HCT116 [2] (Homo sapiens, HCT-116, 96 h), the IC50 was less than 0.1 µM. Also, in data set [3], the half-life at 2 µM lay within 10 to 20 min and the microsomal CLint at 2 µM lay in the range of 70 to 100 µL/min/mg.
As for `Cc1n[nH]c2c1C(c1cc(C#C[C@@H]3CC[C@@H]3CNC(=O)OC(C)(C)C)cc(CO)c1)(C(C)C)C(C#N)=C(N)O2` (some centres unmarked) [KDG-0490], the IC50 result in the data set with HCT116 [1] is given as “B″”. The compound further gave a half-life at 2 µM in data set [3] of less than 5 min.
The matching figures for `Cc1n[nH]c2c1C(c1cc(C#C[C@H]3CC[C@@H](NC(=O)OC(C)(C)C)C3)cc(CO)c1)(C(C)C)C(C#N)=C(N)O2` (some centres unmarked) [KDG-0505]: “A″” and less than 5 min.
For `Cc1n[nH]c2c1C(c1cc(C#C[C@H]3CC[C@H](NC(=O)OC(C)(C)C)C3)cc(CO)c1)(C(C)C)C(C#N)=C(N)O2` (some centres unmarked) [KDG-0506], in the data set on HCT116 [1], the IC50 result is “B″”. In data set [3], the half-life at 2 µM was in the range of 5 to 10 min.
Take `Cc1n[nH]c2c1C(c1cc(C#N)cc(C#CC3CN(C(=O)OC(C)(C)C)C3)c1)(C(C)C)C(C#N)=C(N)O2` (centres unmarked) [KDG-0543]: the IC50 entry in the data set on HCT116 [1] is listed as “B″”. In data set [3], this compound came in with a half-life at 2 µM of 10 to 20 min.
